Source: ChEMBL document CHEMBL1212822, “Synthesis, fluorine-18 radiolabeling, and biological evaluation of N-((E)-4-fluorobut-2-en-1-yl)-2beta-carbomethoxy-3beta-(4'-halophenyl)nortropanes: candidate radioligands for in vivo imaging of the brain dopamine transporter with positron emission tomography” (J Med Chem, 2010)

Assays:
[1] = molecular target: Sodium-dependent dopamine transporter (Homo sapiens, UniProt Q01959)
[2] = molecular target: Sodium-dependent serotonin transporter (Homo sapiens, UniProt P31645)
Sodium-dependent serotonin transporter, sequence (P31645 whole entry): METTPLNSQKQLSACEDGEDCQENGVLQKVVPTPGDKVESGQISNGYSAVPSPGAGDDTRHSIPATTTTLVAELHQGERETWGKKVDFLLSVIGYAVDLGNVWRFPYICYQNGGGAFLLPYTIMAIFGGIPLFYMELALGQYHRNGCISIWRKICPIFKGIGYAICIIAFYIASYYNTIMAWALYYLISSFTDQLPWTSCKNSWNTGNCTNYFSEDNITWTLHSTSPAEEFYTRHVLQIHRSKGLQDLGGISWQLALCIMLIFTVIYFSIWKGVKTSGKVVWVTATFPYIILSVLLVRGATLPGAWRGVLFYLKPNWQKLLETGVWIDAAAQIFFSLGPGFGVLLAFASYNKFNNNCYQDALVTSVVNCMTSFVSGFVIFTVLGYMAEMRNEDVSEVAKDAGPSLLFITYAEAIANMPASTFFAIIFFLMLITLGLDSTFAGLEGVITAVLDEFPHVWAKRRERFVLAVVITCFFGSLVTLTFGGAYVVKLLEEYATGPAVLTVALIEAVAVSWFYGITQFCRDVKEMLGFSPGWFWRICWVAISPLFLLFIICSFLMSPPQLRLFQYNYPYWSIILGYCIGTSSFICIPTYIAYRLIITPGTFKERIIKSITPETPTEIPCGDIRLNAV

[3] = molecular target: Sodium-dependent noradrenaline transporter (Homo sapiens, UniProt P23975)
Sodium-dependent noradrenaline transporter, sequence (P23975 whole entry): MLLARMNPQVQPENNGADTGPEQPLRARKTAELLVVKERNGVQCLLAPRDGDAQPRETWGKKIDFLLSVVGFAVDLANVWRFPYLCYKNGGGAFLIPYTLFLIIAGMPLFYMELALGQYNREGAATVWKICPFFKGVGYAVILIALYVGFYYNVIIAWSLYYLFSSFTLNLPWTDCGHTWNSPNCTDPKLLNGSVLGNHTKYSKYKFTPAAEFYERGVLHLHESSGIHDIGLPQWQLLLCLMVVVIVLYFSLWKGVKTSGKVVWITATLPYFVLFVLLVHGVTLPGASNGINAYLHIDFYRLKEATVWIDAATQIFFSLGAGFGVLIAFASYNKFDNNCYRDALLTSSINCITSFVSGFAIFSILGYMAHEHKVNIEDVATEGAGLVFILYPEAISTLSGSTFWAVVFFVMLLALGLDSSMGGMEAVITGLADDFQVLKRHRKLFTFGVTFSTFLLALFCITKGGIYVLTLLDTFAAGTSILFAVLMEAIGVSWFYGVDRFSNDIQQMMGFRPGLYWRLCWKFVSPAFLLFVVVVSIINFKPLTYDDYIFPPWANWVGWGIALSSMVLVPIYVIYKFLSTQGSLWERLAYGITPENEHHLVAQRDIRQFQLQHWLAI
Description: Displacement of [3H]nisoxetine from human NET

Sodium-dependent dopamine transporter, sequence (Q01959 whole entry): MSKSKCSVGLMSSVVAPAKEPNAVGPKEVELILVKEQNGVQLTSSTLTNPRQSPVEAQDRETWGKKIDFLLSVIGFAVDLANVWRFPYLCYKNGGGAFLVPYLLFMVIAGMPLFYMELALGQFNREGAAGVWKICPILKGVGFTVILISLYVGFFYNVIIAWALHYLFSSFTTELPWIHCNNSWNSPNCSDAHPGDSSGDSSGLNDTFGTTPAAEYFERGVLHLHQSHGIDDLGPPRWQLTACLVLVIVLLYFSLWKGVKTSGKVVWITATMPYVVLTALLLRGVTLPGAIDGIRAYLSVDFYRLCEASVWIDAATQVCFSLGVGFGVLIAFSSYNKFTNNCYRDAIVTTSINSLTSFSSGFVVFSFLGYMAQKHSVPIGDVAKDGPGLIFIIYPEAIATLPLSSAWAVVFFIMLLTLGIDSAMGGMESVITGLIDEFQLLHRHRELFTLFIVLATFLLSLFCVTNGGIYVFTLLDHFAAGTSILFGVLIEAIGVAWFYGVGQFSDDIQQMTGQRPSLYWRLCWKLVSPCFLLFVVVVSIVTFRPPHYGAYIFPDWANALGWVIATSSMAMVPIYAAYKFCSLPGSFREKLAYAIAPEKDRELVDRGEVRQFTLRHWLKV

Row | SMILES | Ki [1] [nM] | Ki [2] [nM] | Ki [3] [nM]
1 | COC(=O)[C@@H]1C2CCC(C[C@@H]1c1ccc(F)cc1)N2C/C=C/CF (stereo partly drawn) | 9.5 | – | –
2 | COC(=O)[C@@H]1C2CCC(C[C@@H]1c1ccc(Br)cc1)N2C/C=C/CF (stereo partly drawn) | – | 8.5 | 87
3 | COC(=O)[C@@H]1C2CCC(C[C@@H]1c1ccc(I)cc1)N2C/C=C/CF (stereo partly drawn) | 0.5 | 2.2 | –
4 | COC(=O)[C@@H]1C2CCC(C[C@@H]1c1ccc(C)cc1)N2C/C=C/CF (stereo partly drawn) | 2.7 | 147 | 265
